From ChEMBL document CHEMBL1201862, “PubChem BioAssay data set” (2004)
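48-hour exposure; five concentrations; linearly interpolated endpoints. GI50 = concentration required for 50% inhibition of growth.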 Active and inactive are the calls of the source. Rule as the data show it: active = GI50 up to about 1.1 µM and inactive = higher.

Experiments:
Experiment in all cases: inhibition of tumour cell growth, NCI panel, 48 h
CCRF-CEM = test system: CCRF-CEM
OVCAR-5 = test system: OVCAR-5
SNB-75 = test system: SNB-75
SF-295 = test system: SF-295
A549 = test system: A549
MDA-MB-435 = test system: MDA-MB-435
RXF 393 = test system: RXF 393
MDA-N = test system: MDA-N
M19-MEL = test system: M19-MEL
T47D = test system: T47D
MOLT-4 = test system: MOLT-4
UO-31 = test system: UO-31
SN12C = test system: SN12C
HOP-92 = test system: HOP-92
HOP-62 = test system: HOP-62
UACC-62 = test system: UACC-62
MCF7 = test system: MCF7
NCI-H460 = test system: NCI-H460
SF-539 = test system: SF-539

Measured: GI50

COc1ccc(CCNCCCC2c3ccccc3-c3ccccc32)cc1OC
inactive: CCRF-CEM 24.3 µM | OVCAR-5 19.2 µM | SNB-75 13.5 µM | SF-295 15.6 µM | A549 16.1 µM | MDA-MB-435 14.7 µM | RXF 393 11.3 µM | MDA-N 16.7 µM | M19-MEL 11.1 µM | T47D 17.1 µM | MOLT-4 22.6 µM | UO-31 11.6 µM | SN12C 15 µM | HOP-92 5.71 µM | HOP-62 16 µM | UACC-62 16.4 µM | MCF7 6.7 µM | NCI-H460 7.16 µM | SF-539 16.3 µM

COC(=O)C1C=CCC2CCCCC21N1CCCC1 (stereo not drawn)
inactive: CCRF-CEM 53.1 µM | OVCAR-5 > 100 µM | SNB-75 44 µM | SF-295 > 100 µM | A549 71.8 µM | RXF 393 > 100 µM | M19-MEL 59.3 µM | MOLT-4 64.4 µM | UO-31 > 100 µM | SN12C 78.5 µM | HOP-92 34 µM | HOP-62 > 100 µM | UACC-62 > 100 µM | NCI-H460 55.2 µM | SF-539 > 100 µM

O=C(NC1C=Nc2ccccc2NC1=O)c1ccccc1Cl (stereo not drawn)
inactive: CCRF-CEM 14 µM | OVCAR-5 > 100 µM | SNB-75 50 µM | SF-295 57.1 µM | A549 48 µM | RXF 393 13 µM | M19-MEL 57 µM | MOLT-4 12.6 µM | UO-31 24.9 µM | SN12C 64.4 µM | HOP-92 31.4 µM | HOP-62 > 100 µM | UACC-62 33.6 µM | NCI-H460 44 µM | SF-539 > 100 µM

Oc1cc(-c2ccccc2)c2ccccc2n1
inactive: CCRF-CEM 60.8 µM | OVCAR-5 64.4 µM | SNB-75 13 µM | SF-295 87.9 µM | A549 34.4 µM | RXF 393 36.2 µM | M19-MEL 82.6 µM | MOLT-4 37.8 µM | UO-31 15.1 µM | SN12C 30.9 µM | HOP-92 5.62 µM | HOP-62 28.2 µM | UACC-62 48.3 µM | NCI-H460 41.9 µM | SF-539 52.7 µM

CCCCCCCCCCCCC(CCCCCCCCCCCC)OP(=O)(O)O
inactive: CCRF-CEM > 100 µM | OVCAR-5 > 100 µM | SNB-75 43.4 µM | SF-295 > 100 µM | A549 > 100 µM | RXF 393 > 100 µM | M19-MEL > 100 µM | MOLT-4 59.2 µM | UO-31 55.6 µM | SN12C > 100 µM | HOP-92 56.1 µM | HOP-62 > 100 µM | UACC-62 > 100 µM | NCI-H460 > 100 µM | SF-539 46.2 µM

CCOC(=O)[C@H](CCCNC(=O)OC(C)(C)C)NCc1ccc(OC)c(OC)c1
inactive: CCRF-CEM > 100 µM | OVCAR-5 > 100 µM | SNB-75 > 100 µM | SF-295 > 100 µM | A549 > 100 µM | RXF 393 > 100 µM | M19-MEL > 100 µM | MOLT-4 > 100 µM | UO-31 > 100 µM | SN12C > 100 µM | HOP-92 > 100 µM | HOP-62 > 100 µM | UACC-62 > 100 µM | SF-539 > 100 µM

COC(=O)/C(C)=C(/CCC1(C)OCCO1)O[Si](C)(C)C
inactive: CCRF-CEM > 100 µM | OVCAR-5 > 100 µM | SNB-75 20.5 µM | SF-295 > 100 µM | A549 > 100 µM | RXF 393 > 100 µM | M19-MEL > 100 µM | MOLT-4 > 100 µM | UO-31 95.3 µM | SN12C > 100 µM | HOP-92 > 100 µM | HOP-62 > 100 µM | UACC-62 > 100 µM | NCI-H460 47.1 µM | SF-539 > 100 µM

N#CC(NNC(=O)Cc1ccccc1)c1ccc(O)cc1 (stereo not drawn)
inactive: CCRF-CEM > 100 µM | OVCAR-5 > 100 µM | SNB-75 28.2 µM | SF-295 > 100 µM | A549 > 100 µM | RXF 393 > 100 µM | M19-MEL > 100 µM | MOLT-4 > 100 µM | UO-31 > 100 µM | SN12C > 100 µM | HOP-92 85.9 µM | HOP-62 > 100 µM | UACC-62 > 100 µM | NCI-H460 > 100 µM | SF-539 > 100 µM
